Measurements from patent US20250101023A1, “HETEROARYL DERIVATIVE AND USES THEREOF” (IUCF-HYU (INDUSTRY-UNIVERSITY COOPERATION FOUNDATION …, priority 2022, published 2025).

Assays:
STK21/CIT = STK21/CIT (Homo sapiens (Human), UniProt O14578); experiment: Kinome-wide profiling; format: biochemical; details: read-out: % Residual Activity (mean)
MYO3b = MYO3b (Homo sapiens (Human), UniProt Q8WXR4); experiment: Kinome-wide profiling; format: biochemical; details: read-out: % Residual Activity (mean)
GRK4 = GRK4 (Homo sapiens (Human), UniProt P32298); experiment: Kinome-wide profiling; format: biochemical; details: read-out: % Residual Activity (mean)
[1] = Body weight in SK-Br3 xenograft model; format: in vivo, mouse; details: 10 mg/kg and 20 mg/kg, i.p. twice a week
Method: (§1) A mouse efficacy experiment was conducted after obtaining approval from the Laboratory Animal Ethics Committee of GenNBio (Review No.: GN-IACUC-Research 22-02-07). SK-Br3 and HCC-1954 cells (1×10^6 cells each) mixed with Matrigel (BD Biosciences) were […] injected into 5-week-old female Balb/c nude mice (Orient Bio, Seongnam, Republic of Korea). After tumors reached a size of about 100 mm^3, the compound, trastuzumab (20 mg/kg), and the like were intraperitoneally injected into mice (n=8 per group)(vehicle: 8% DMSO, 4% Tween-80, 88% PBS). The tumor size was measured twice weekly for about 4 weeks and calculated as follows. Volume (mm^3)=(a×b^2)/2; “a”, maximum diameter; “b”, vertical diameter

TAK1 = TAK1 (Homo sapiens (Human), UniProt O43318); experiment: Kinome-wide profiling; format: biochemical; details: read-out: % Residual Activity (mean)
JAK3 = JAK3 (Homo sapiens (Human), UniProt P52333); experiment: Kinome-wide profiling; format: biochemical; details: read-out: % Residual Activity (mean)
FGR = FGR (Homo sapiens (Human), UniProt P09769); experiment: Kinome-wide profiling; format: biochemical; details: read-out: % Residual Activity (mean)
TRKC = TRKC (Homo sapiens (Human), UniProt Q16288); experiment: Kinome-wide profiling; format: biochemical; details: read-out: % Residual Activity (mean)
TYK1/LTK = TYK1/LTK (Homo sapiens (Human), UniProt P29376); experiment: Kinome-wide profiling; format: biochemical; details: read-out: % Residual Activity (mean)
TNK1 = TNK1 (Homo sapiens (Human), UniProt Q13470); experiment: Kinome-wide profiling; format: biochemical; details: read-out: % Residual Activity (mean)
PKCeta = PKCeta (Homo sapiens (Human), UniProt P24723); experiment: Kinome-wide profiling; format: biochemical; details: read-out: % Residual Activity (mean)
NEK9 = NEK9 (Homo sapiens (Human), UniProt Q8TD19); experiment: Kinome-wide profiling; format: biochemical; details: read-out: % Residual Activity (mean)
SK-Br3 xenograft = SK-Br3 xenograft model, anticancer efficacy; format: in vivo, mouse; details: 10 mg/kg and 20 mg/kg, i.p. twice a week
Method: as §1

PKCIOTA = PKCIOTA (Homo sapiens (Human), UniProt P41743); experiment: Kinome-wide profiling; format: biochemical; details: read-out: % Residual Activity (mean)
VRK2 = VRK2 (Homo sapiens (Human), UniProt Q86Y07); experiment: Kinome-wide profiling; format: biochemical; details: read-out: % Residual Activity (mean)
CAMK1g = CAMK1g (Homo sapiens (Human), UniProt Q96NX5); experiment: Kinome-wide profiling; format: biochemical; details: read-out: % Residual Activity (mean)
SBK1 = SBK1 (Homo sapiens (Human), UniProt Q52WX2); experiment: Kinome-wide profiling; format: biochemical; details: read-out: % Residual Activity (mean)
Chain of SBK1 (Q52WX2 whole entry): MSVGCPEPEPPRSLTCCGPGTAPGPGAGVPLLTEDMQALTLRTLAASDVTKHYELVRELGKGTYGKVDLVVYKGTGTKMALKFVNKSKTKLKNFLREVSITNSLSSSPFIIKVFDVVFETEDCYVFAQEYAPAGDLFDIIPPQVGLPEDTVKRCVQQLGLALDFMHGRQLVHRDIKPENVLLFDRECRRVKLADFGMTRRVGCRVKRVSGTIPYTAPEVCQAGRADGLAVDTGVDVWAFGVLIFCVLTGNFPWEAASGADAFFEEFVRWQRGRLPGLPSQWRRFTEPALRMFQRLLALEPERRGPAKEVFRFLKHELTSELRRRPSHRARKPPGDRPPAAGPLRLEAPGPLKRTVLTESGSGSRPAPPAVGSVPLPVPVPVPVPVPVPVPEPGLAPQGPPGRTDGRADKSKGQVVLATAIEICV

EPHA8 = EPHA8 (Homo sapiens (Human), UniProt P29322); experiment: Kinome-wide profiling; format: biochemical; details: read-out: % Residual Activity (mean)
Chain of EPHA8 (P29322 28-1005): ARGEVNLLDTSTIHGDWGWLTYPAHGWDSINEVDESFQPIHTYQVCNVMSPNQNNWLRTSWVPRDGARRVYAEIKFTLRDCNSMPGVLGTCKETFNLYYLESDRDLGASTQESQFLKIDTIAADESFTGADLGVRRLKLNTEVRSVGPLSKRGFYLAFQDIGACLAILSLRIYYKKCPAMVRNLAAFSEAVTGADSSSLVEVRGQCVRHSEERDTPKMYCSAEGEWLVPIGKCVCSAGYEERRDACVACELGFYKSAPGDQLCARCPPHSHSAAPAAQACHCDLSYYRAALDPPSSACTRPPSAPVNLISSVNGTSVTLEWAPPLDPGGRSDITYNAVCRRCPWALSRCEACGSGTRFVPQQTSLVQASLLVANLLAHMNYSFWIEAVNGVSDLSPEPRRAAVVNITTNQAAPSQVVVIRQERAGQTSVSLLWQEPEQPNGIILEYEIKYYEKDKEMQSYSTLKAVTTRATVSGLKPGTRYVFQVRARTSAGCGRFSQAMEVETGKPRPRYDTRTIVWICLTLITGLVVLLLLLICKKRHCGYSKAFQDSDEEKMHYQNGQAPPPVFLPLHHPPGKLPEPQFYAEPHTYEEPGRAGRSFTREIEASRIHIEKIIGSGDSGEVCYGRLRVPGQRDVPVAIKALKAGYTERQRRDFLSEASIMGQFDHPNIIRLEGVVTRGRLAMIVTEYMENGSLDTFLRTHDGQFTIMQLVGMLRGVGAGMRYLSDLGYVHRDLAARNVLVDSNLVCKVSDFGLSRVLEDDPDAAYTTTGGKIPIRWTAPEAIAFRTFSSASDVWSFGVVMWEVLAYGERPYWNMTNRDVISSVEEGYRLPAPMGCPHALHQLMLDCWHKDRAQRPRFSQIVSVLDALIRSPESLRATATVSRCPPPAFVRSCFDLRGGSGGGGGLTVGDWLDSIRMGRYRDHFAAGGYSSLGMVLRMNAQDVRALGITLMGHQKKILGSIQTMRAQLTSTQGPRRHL

EPHB3 = EPHB3 (Homo sapiens (Human), UniProt P54753); experiment: Kinome-wide profiling; format: biochemical; details: read-out: % Residual Activity (mean)
Chain of EPHB3 (P54753 34-998): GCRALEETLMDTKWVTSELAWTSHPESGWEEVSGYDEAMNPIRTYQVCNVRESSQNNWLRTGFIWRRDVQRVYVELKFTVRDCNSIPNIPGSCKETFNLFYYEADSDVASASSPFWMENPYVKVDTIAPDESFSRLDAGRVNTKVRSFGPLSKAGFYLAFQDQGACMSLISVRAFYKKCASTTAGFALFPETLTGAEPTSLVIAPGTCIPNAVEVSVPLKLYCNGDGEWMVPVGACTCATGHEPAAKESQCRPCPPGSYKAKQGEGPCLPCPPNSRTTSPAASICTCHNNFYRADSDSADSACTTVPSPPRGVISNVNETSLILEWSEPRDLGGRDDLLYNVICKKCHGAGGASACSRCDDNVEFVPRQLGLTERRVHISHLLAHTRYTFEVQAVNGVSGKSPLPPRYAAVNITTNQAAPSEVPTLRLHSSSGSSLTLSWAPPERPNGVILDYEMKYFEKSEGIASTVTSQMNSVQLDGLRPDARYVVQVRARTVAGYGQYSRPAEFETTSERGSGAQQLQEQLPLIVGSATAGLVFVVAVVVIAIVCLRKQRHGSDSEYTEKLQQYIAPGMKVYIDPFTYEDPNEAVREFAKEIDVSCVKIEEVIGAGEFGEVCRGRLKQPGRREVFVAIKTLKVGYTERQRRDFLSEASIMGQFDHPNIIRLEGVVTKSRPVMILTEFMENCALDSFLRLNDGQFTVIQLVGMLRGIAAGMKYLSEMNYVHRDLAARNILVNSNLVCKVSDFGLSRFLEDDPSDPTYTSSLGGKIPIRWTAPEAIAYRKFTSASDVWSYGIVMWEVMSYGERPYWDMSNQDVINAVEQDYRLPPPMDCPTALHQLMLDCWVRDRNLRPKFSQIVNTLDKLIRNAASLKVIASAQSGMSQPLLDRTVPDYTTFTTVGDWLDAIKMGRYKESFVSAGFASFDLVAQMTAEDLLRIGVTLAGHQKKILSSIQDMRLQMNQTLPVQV

SNRK = SNRK (Homo sapiens (Human), UniProt Q9NRH2); experiment: Kinome-wide profiling; format: biochemical; details: read-out: % Residual Activity (mean)
MNK1 = MNK1 (Homo sapiens (Human), UniProt Q9BUB5); experiment: Kinome-wide profiling; format: biochemical; details: read-out: % Residual Activity (mean)
PKCg = PKCg (Homo sapiens (Human), UniProt P05129); experiment: Kinome-wide profiling; format: biochemical; details: read-out: % Residual Activity (mean)
STK16 = STK16 (Homo sapiens (Human), UniProt O75716); experiment: Kinome-wide profiling; format: biochemical; details: read-out: % Residual Activity (mean)
Chain of STK16 (O75716 whole entry): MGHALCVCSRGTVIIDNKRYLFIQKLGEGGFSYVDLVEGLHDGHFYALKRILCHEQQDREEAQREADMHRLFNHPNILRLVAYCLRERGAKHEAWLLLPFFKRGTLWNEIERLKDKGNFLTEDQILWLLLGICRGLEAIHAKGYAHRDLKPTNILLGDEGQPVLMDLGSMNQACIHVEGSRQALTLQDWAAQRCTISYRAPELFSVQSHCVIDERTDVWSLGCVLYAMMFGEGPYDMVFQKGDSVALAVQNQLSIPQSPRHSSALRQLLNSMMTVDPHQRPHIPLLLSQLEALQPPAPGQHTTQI

TRKB = TRKB (Homo sapiens (Human), UniProt Q16620); experiment: Kinome-wide profiling; format: biochemical; details: read-out: % Residual Activity (mean)
Chain of TRKB (Q16620 32-822): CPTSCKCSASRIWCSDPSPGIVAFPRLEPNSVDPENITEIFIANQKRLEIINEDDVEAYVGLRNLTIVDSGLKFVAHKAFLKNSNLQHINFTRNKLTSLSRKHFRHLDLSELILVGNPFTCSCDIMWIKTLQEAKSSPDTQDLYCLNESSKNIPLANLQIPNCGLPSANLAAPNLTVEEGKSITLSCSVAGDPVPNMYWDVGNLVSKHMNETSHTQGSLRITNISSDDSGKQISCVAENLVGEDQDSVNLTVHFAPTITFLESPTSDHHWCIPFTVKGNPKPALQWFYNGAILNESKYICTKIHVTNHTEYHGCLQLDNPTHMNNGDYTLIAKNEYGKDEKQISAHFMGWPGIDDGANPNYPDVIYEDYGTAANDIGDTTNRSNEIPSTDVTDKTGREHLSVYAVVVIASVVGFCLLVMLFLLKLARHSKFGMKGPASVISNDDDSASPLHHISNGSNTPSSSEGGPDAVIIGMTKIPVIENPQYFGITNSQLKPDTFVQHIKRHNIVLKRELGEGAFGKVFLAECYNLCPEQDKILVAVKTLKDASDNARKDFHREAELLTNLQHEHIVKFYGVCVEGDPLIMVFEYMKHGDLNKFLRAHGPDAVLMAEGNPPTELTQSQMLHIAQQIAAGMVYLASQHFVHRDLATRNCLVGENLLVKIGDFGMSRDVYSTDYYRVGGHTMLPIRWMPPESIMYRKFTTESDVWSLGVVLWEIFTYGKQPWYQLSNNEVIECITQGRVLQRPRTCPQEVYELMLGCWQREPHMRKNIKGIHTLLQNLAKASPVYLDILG

STK38/NDR1 = STK38/NDR1 (Homo sapiens (Human), UniProt Q15208); experiment: Kinome-wide profiling; format: biochemical; details: read-out: % Residual Activity (mean)
NEK3 = NEK3 (Homo sapiens (Human), UniProt P51956); experiment: Kinome-wide profiling; format: biochemical; details: read-out: % Residual Activity (mean)
CDK17/cyclin Y (PCTK2) = CDK17/cyclin Y (PCTK2) (Homo sapiens (Human), UniProt Q00537); experiment: Kinome-wide profiling; format: biochemical; details: read-out: % Residual Activity (mean)
Chain of CDK17/cyclin Y (PCTK2) (Q00537 whole entry): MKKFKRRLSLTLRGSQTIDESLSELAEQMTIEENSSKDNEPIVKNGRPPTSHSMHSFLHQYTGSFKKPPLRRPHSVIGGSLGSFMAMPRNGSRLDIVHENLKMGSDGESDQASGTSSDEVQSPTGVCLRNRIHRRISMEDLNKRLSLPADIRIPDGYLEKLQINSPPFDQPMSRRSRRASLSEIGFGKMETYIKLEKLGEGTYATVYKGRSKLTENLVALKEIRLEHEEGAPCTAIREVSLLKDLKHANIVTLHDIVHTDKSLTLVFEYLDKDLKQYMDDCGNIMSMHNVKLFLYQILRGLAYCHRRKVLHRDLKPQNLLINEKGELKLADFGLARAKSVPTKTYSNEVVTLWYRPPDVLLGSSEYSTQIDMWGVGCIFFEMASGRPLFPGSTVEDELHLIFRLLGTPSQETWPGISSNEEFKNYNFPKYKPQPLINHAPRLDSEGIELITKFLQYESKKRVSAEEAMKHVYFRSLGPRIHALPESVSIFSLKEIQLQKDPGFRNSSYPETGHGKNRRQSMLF
Chain of CDK17/cyclin Y (PCTK2) (Q8ND76 whole entry partner): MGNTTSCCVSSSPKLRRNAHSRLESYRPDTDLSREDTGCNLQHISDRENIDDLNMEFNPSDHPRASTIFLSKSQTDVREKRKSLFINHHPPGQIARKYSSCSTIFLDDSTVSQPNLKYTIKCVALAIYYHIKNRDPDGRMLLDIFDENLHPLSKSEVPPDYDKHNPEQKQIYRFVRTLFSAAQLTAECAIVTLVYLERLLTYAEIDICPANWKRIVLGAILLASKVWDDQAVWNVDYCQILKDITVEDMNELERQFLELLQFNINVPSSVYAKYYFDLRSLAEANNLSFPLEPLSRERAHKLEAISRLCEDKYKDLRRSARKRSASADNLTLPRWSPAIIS

p70S6Kb/RPS6KB2 = p70S6Kb/RPS6KB2 (Homo sapiens (Human), UniProt Q9UBS0); experiment: Kinome-wide profiling; format: biochemical; details: read-out: % Residual Activity (mean)
[2] = Liver microsomal metabolic stability; format: in vitro ADME
Method: 5 derivatives were evaluated for in vitro metabolic stability in liver microsomes from three different species (human, dog, mouse) and for inhibitory activity against 5 representative cytochrome P450 enzymes (CYPs)(Table 3). In terms of liver microsomal stability, the 2′-pyridyl group is more suitable than the α-methyl-4′-pyridyl group as the terminal aromatic group at position 6, and the aminopyrimidyl group is better than the aminopyridyl group as a substituent at position 2.

TLK1 = TLK1 (Homo sapiens (Human), UniProt Q9UKI8); experiment: Kinome-wide profiling; format: biochemical; details: read-out: % Residual Activity (mean)
CK1epsilon = CK1epsilon (Homo sapiens (Human), UniProt P49674); experiment: Kinome-wide profiling; format: biochemical; details: read-out: % Residual Activity (mean)
CDK1/cyclin E = CDK1/cyclin E (Homo sapiens (Human), UniProt P06493); experiment: Kinome-wide profiling; format: biochemical; details: read-out: % Residual Activity (mean)
AURORA C = AURORA C (Homo sapiens (Human), UniProt Q9UQB9); experiment: Kinome-wide profiling; format: biochemical; details: read-out: % Residual Activity (mean)

CCn1cnc2c(NCc3ccc(-c4ccccn4)nc3)nc(-c3ccc(N)nc3)nc21 [Example 53, N-([2,2′-bipyridin]-5-ylmethyl)-2-(6-aminopyridin-3-yl)-9-ethyl-9H-purin-6-amine] gave a remaining activity at 10 µM (STK21/CIT) of 97.9%, a remaining activity at 10 µM (MYO3b) of 68.1% and a remaining activity at 10 µM (GRK4) of 88.3%. The mouse body weight [1] was “without any change in mouse weight”, the remaining activity at 10 µM (TAK1) was 98.2% and the remaining activity at 10 µM (JAK3) was 99.7%. For the same compound, the remaining activity at 10 µM (FGR) was 54.6%, the remaining activity at 10 µM (TRKC) was 54.9% and the remaining activity at 10 µM (TYK1/LTK) was 73.6%. The remaining activity at 10 µM (TNK1) was 91.3%, the remaining activity at 10 µM (PKCeta) was 87.9% and the remaining activity at 10 µM (NEK9) was 90%. The anticancer efficacy (SK-Br3 xenograft) was “anticancer efficacy in a dose-dependent manner”, the remaining activity at 10 µM (PKCIOTA) was 86.1% and the remaining activity at 10 µM (VRK2) was 96.6%. It also gave a remaining activity at 10 µM (CAMK1g) of 54.3%, a remaining activity at 10 µM (SBK1) of 94.5% and a remaining activity at 10 µM (EPHA8) of 94%. It also gave a remaining activity at 10 µM (EPHB3) of 66%, a remaining activity at 10 µM (SNRK) of 93% and a remaining activity at 10 µM (MNK1) of 89.2%. For the same compound, the remaining activity at 10 µM (PKCg) was 49.5%, the remaining activity at 10 µM (STK16) was 35.9% and the remaining activity at 10 µM (TRKB) was 16.5%. It also gave a remaining activity at 10 µM (STK38/NDR1) of 28.3%, a remaining activity at 10 µM (NEK3) of 86.6% and a remaining activity at 10 µM (CDK17/cyclin Y (PCTK2)) of 7.25%. The remaining activity at 10 µM (p70S6Kb/RPS6KB2) was 92.2%, the “Liver microsomal metabolic stability (% remaining amount) Dog” value ([2]; dog liver microsomes) was 46.2% and the “Liver microsomal metabolic stability (% remaining amount) Human” value ([2]; human liver microsomes) was 64.8%. The “Liver microsomal metabolic stability (% remaining amount) Mouse” value ([2]; mouse liver microsomes) was 49.9%, the remaining activity at 10 µM (TLK1) was 67.8% and the remaining activity at 10 µM (CK1epsilon) was 29.8%. It also gave a remaining activity at 10 µM (CDK1/cyclin E) of 7.49% and a remaining activity at 10 µM (AURORA C) of 25.5%.
